Experimental data reported in the supplement of paper PMC10307832.

Legend:
Test in all cases: relative viability (nuclei count vs DMSO), 5 days (fraction); higher = more cells survive
[1] = system: HCC-366
Outline: (§1)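 Lung cancer cell lines were seeded in 1536-well plates and dosed by pin tool the next day, with either a single drug or a fixed anchor-drug dose combined with five library-drug doses (not always all listed) spaced in √10 steps. Five days later, one step fixed the cells and stained their nuclei (final 0.05% Triton X-100, 1% formaldehyde, 1 ug/ml Hoechst), and nuclei were counted on 4× images. Relative viability is the nuclei count in treated wells divided by the count in vehicle wells, and each value is the median of duplicate plates.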

[2] = system: NCI-H1395
Outline: as §1

[3] = system: HCC-78
Outline: as §1

[4] = system: NCI-H1623
Outline: as §1

[5] = system: EMC-BAC-2
Outline: as §1

[6] = system: NCI-H1648
Outline: as §1

[7] = system: LCLC-97TM1
Outline: as §1

[8] = system: Calu-6
Outline: as §1

[9] = system: EBC-1
Outline: as §1

[10] = system: IA-LM
Outline: as §1

[11] = system: A549
Outline: as §1

[12] = system: NCI-H1703
Outline: as §1

[13] = system: NCI-H1299
Outline: as §1

SMILES: CCNC(=O)c1noc(-c2cc(C(C)C)c(O)cc2O)c1-c1ccc(CN2CCOCC2)cc1 [Luminespib] + Cc1cc(Nc2cc(N3CCN(C)CC3)nc(Sc3ccc(NC(=O)C4CC4)cc3)n2)n[nH]1 [Tozasertib] (partner 0.1 µM)
- relative viability ([1]; first compound 0.002 µM): 0.13
- relative viability ([1]; first compound 0.006325 µM): 0.105
- relative viability ([1]; first compound 0.02 µM): 0.108
- relative viability ([1]; first compound 0.06325 µM): 0.228
- relative viability ([1]; first compound 0.2 µM): 0.0502
- relative viability ([2]; first compound 0.002 µM): 0.783
- relative viability ([2]; first compound 0.006325 µM): 0.693
- relative viability ([2]; first compound 0.02 µM): 0.676
- relative viability ([2]; first compound 0.06325 µM): 0.386
- relative viability ([2]; first compound 0.2 µM): 0.322
- relative viability ([3]; first compound 0.002 µM): 0.399
- relative viability ([3]; first compound 0.006325 µM): 0.273
- relative viability ([3]; first compound 0.06325 µM): 0.467
- relative viability ([3]; first compound 0.2 µM): 0.303
- relative viability ([4]; first compound 0.002 µM): 0.398
- relative viability ([4]; first compound 0.006325 µM): 0.415
- relative viability ([4]; first compound 0.02 µM): 0.386
- relative viability ([4]; first compound 0.06325 µM): 0.306
- relative viability ([4]; first compound 0.2 µM): 0.297
- relative viability ([5]; first compound 0.002 µM): 0.345
- relative viability ([5]; first compound 0.006325 µM): 0.261
- relative viability ([5]; first compound 0.02 µM): 0.28
- relative viability ([5]; first compound 0.06325 µM): 0.342
- relative viability ([5]; first compound 0.2 µM): 0.299
- relative viability ([6]; first compound 0.006325 µM): 0.373
- relative viability ([6]; first compound 0.02 µM): 0.362
- relative viability ([6]; first compound 0.06325 µM): 0.578
- relative viability ([6]; first compound 0.2 µM): 0.262
- relative viability ([7]; first compound 0.002 µM): 0.198
- relative viability ([7]; first compound 0.006325 µM): 0.268
- relative viability ([7]; first compound 0.02 µM): 0.117
- relative viability ([7]; first compound 0.06325 µM): 0.241
- relative viability ([7]; first compound 0.2 µM): 0.214

SMILES: Cc1csc(=NC2CCCCC2)n1/N=C/c1ccc(O)c(O)c1O [MIM1] + COc1cc2c(Oc3ccc(NC(=O)C4(C(=O)Nc5ccc(F)cc5)CC4)cc3F)ccnc2cc1OCCCN1CCOCC1 [Foretinib] (partner 0.25 µM)
- relative viability ([8]; first compound 0.2 µM): 0.847
- relative viability ([8]; first compound 0.6325 µM): 0.894
- relative viability ([8]; first compound 2 µM): 0.816
- relative viability ([8]; first compound 6.325 µM): 0.797
- relative viability ([8]; first compound 20 µM): 0.318
- relative viability ([1]; first compound 0.2 µM): 0.927
- relative viability ([1]; first compound 2 µM): 0.993
- relative viability ([1]; first compound 6.325 µM): 0.782
- relative viability ([1]; first compound 20 µM): 0.077
- relative viability ([2]; first compound 0.2 µM): 1.03
- relative viability ([2]; first compound 0.6325 µM): 0.975
- relative viability ([2]; first compound 2 µM): 0.905
- relative viability ([2]; first compound 6.325 µM): 0.917
- relative viability ([2]; first compound 20 µM): 0.388
- relative viability ([9]; first compound 0.2 µM): 0.108
- relative viability ([9]; first compound 0.6325 µM): 0.102
- relative viability ([9]; first compound 2 µM): 0.119
- relative viability ([9]; first compound 6.325 µM): 0.106
- relative viability ([9]; first compound 20 µM): 0.119
- relative viability ([3]; first compound 0.2 µM): 0.558
- relative viability ([3]; first compound 0.6325 µM): 0.563
- relative viability ([3]; first compound 2 µM): 0.539
- relative viability ([3]; first compound 6.325 µM): 0.553
- relative viability ([3]; first compound 20 µM): 0.911
- relative viability ([4]; first compound 0.2 µM): 0.88
- relative viability ([4]; first compound 0.6325 µM): 0.721
- relative viability ([4]; first compound 2 µM): 0.914
- relative viability ([4]; first compound 6.325 µM): 0.718
- relative viability ([4]; first compound 20 µM): 0.409
- relative viability ([10]; first compound 0.2 µM): 1.11
- relative viability ([10]; first compound 0.6325 µM): 1.29
- relative viability ([10]; first compound 2 µM): 1.28
- relative viability ([10]; first compound 6.325 µM): 0.842
- relative viability ([10]; first compound 20 µM): 0.476
- relative viability ([11]; first compound 0.2 µM): 0.917
- relative viability ([11]; first compound 0.6325 µM): 0.939
- relative viability ([11]; first compound 2 µM): 1.02
- relative viability ([11]; first compound 6.325 µM): 0.771
- relative viability ([11]; first compound 20 µM): 0.144
- relative viability ([12]; first compound 0.2 µM): 0.417
- relative viability ([12]; first compound 0.6325 µM): 0.391
- relative viability ([12]; first compound 2 µM): 0.375
- relative viability ([12]; first compound 6.325 µM): 0.296
- relative viability ([12]; first compound 20 µM): 0.181
- relative viability ([5]; first compound 0.2 µM): 0.698
- relative viability ([5]; first compound 0.6325 µM): 1
- relative viability ([5]; first compound 2 µM): 0.963
- relative viability ([5]; first compound 6.325 µM): 0.697
- relative viability ([5]; first compound 20 µM): 0.449
- relative viability ([7]; first compound 0.2 µM): 0.92
- relative viability ([7]; first compound 0.6325 µM): 1.08
- relative viability ([7]; first compound 2 µM): 0.888
- relative viability ([7]; first compound 6.325 µM): 0.611
- relative viability ([7]; first compound 20 µM): 0.259
- relative viability ([13]; first compound 0.2 µM): 1.15
- relative viability ([13]; first compound 0.6325 µM): 1.09
- relative viability ([13]; first compound 2 µM): 1.14
- relative viability ([13]; first compound 6.325 µM): 1.06
- relative viability ([13]; first compound 20 µM): 1.06
